Test results reported in patent publication US20100022656A1, “OPTICALLY ACTIVE PHENYLETHANOL AMINES AND PREPARING METHOD THEREOF” (SHENYANG PHARMACEUTICAL UNIVERSITY, priority 2006, published 2010).

Molecular target: T1, β2-receptor (Cavia porcellus, UniProt Q8K4Z4)
T1 construct: Trachea was removed and cut from thyroid cartilage to trachea crotch; from tissue; host or cells: guinea pig (Hartley) isolated trachea strips
Experiment: Antagonistic effect on isolated trachea strip constriction induced by histamine (study of effect on β2-receptor)
Assay type: cell-based
Conditions: isolated guinea pig (Hartley) trachea strips contracted with histamine to 50% of maximum; tested compounds formulated as 10^−6 M solution; 37° C.
Source text: Study of the Effect of Compounds of the Invention on β2-Receptor
Sample: All tested compounds were formulated into solution of 10^−6 M.
The antagonistic effects of the compounds of the present invention on the trachea constriction induced by histamine.
Guinea pigs were sacrificed and cut through the skin and subcutaneous tissue on ventral side of neck. Trachea was removed and cut from thyroid cartilage to trachea crotch, then placed into an ice cooled oxygenated Kebs-Hensleits solution. The connective tissues around the trachea were cut off. The trachea was held by a nipper on one end and cut into trachea strips (2 cm×3 mm) in helix. The samples were then put into a bath containing 20 ml of Kebs-Hensleits solution. The lower end of the trachea strips was fastened to a vent hook and the upper end was connected to a strain gauge transducer, thus the tension change was measured by the recorder. The bath was controlled at 37° C. and oxygen gas was continuously supplied. The preload of the samples was 2 g. The samples were equilibrated in the nutrient solution for 1 hour and the solution was refreshed every 20 min.
When the tension of the samples reached a stable value, various concentrations (1×10^−10˜3×10^−4 mol·L^−1) of histamine were added to the bath. A dose-effect curve was established to determine the concentration of histamine when 50% of the maximum contraction was reached. After refreshing the solution and balancing the samples for 60 min, an amount of histamine was added to the bath. When the tension of trachea strips reached 50% of the maximum contraction, the tested compounds were added to bath, and the antagonistic effect (represented as relaxing rate) of the compounds on the isolated trachea constriction induced by histamine was calculated as below:
Relaxing rate (%)=[(Contraction intensity after histamine addition−Contraction intensity after tested compounds addition)/[…]]×100%

T1 sequence (Q8K4Z4 whole entry): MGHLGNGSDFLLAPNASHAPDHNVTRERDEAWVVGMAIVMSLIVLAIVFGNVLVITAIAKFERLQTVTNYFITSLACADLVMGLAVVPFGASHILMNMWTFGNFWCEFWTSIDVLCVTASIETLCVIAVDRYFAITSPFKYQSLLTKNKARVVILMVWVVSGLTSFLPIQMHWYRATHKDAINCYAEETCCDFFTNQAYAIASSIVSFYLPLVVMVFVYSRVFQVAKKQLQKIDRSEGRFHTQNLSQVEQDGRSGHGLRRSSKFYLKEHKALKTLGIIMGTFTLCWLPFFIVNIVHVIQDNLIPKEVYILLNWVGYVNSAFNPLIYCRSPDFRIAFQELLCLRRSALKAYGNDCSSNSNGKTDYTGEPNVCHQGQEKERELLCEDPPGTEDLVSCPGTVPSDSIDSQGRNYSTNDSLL

Relaxing rate (%)	Compound
78.1	CC(C)(C)NC(CO)c1cc(Cl)c(N)c(C#N)c1.Cl (stereo not drawn) [drawing 7]
88.3	CC(C)(C)NC(CO)c1ccc(N)c(C(F)(F)F)c1.Cl (stereo not drawn) [drawing 14]
100.0	CC(C)(C)NC(CO)c1cc(Cl)c(N)c(C#N)c1.Cl (stereo not drawn) [drawing 6]
70.2	CC(C)(C)NC(CO)c1ccc(N)c(C(F)(F)F)c1.Cl (stereo not drawn) [drawing 12]
55.3	CC(C)(C)NC(CO)c1ccc(N)c(C(F)(F)F)c1.Cl (stereo not drawn) [drawing 13]
112.1	CC(C)(C)NC(CO)c1cc(Cl)c(N)c(C#N)c1.Cl (stereo not drawn) [drawing 8]
